# From ChEMBL document CHEMBL1133894, “Design and synthesis of a highly selective EP4-receptor agonist. Part 2: 5-thia and 9beta-haloPG derivatives with improved stability” (Bioorg Med Chem Lett, 2001)
# Assays:
# [1] = molecular target: T1, Prostaglandin E2 receptor EP4 subtype (Mus musculus, UniProt P32240); experiment: Affinity for mouse Prostanoid EP4 receptor expressed in CHO cells; format: cell-based
# Prostacyclin receptor = Prostacyclin receptor (Homo sapiens, UniProt P43119); experiment: Affinity for human Prostanoid IP receptor expressed in CHO cells; format: cell-based
# Prostacyclin receptor, sequence (P43119 whole entry): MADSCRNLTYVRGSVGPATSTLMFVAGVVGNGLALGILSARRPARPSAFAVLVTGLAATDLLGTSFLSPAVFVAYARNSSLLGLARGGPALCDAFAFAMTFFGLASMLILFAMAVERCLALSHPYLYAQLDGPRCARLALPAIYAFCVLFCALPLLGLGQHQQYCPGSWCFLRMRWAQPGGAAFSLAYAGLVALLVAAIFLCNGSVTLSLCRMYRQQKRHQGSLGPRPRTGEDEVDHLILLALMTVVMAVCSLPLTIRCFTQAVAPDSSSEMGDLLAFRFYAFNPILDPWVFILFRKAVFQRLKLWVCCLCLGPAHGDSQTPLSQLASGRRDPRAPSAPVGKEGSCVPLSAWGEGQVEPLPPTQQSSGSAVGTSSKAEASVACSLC
# [2] = molecular target: T1, Prostaglandin E2 receptor EP4 subtype; experiment: Effective concentration for increased intracellular c-AMP production by mouse Prostanoid EP4 receptor; format: functional, cell-based
# [3] = molecular target: Prostaglandin E2 receptor EP2 subtype (Mus musculus, UniProt Q62053); experiment: Affinity for mouse Prostanoid EP2 receptor expressed in CHO cells; format: cell-based
# Prostaglandin E2 receptor EP2 subtype, sequence (Q62053 whole entry): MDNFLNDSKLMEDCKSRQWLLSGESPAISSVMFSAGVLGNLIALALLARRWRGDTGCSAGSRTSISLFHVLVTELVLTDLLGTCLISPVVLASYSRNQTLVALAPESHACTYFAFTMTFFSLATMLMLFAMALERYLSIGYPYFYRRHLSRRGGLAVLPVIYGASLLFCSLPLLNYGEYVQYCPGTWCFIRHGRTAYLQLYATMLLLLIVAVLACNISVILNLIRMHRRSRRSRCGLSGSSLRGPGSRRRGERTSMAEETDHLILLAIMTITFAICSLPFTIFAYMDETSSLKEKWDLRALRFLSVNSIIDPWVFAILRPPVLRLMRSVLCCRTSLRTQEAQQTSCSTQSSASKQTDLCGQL
# [4] = molecular target: T2, Prostaglandin E2 receptor EP3 subtype (Mus musculus, UniProt P30557); experiment: Affinity for mouse Prostanoid EP3 receptor expressed in CHO cells; format: cell-based
# T2 sequence (P30557 whole entry): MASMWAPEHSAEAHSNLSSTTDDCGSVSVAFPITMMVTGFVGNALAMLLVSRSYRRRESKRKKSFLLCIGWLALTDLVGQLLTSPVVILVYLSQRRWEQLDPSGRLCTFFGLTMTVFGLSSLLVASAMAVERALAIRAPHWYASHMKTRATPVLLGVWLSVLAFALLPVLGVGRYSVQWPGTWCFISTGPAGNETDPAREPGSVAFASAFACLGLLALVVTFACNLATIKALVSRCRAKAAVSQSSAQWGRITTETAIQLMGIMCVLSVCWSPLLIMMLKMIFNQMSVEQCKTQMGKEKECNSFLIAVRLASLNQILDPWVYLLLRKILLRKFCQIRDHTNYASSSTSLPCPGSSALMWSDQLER
# [5] = molecular target: T3, Prostaglandin E2 receptor EP1 subtype (Mus musculus, UniProt P35375); experiment: Affinity for mouse Prostanoid EP1 receptor expressed in CHO cells; format: cell-based
# T3 sequence (P35375 whole entry): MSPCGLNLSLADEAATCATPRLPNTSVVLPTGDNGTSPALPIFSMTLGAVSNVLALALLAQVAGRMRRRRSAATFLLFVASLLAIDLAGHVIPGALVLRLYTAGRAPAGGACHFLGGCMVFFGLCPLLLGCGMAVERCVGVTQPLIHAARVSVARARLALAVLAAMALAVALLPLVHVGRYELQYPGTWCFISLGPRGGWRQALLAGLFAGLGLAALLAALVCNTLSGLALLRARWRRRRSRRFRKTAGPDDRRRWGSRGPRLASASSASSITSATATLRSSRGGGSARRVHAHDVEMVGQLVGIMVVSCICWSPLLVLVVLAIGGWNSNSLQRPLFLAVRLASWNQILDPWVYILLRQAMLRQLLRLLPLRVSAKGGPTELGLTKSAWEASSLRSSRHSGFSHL
# Rattus norvegicus [6] = organism: Rattus norvegicus; experiment: Stimulation of Uterine motility which mediates the EP3-receptor in rats; format: functional
# Rattus norvegicus [7] = experiment: Suppression of production of plasma TNF-alpha after intravenous infusion of 10, 30, 100 and 300 ng/kg/min; significant; format: functional, organism-based
# T1 sequence (P32240 whole entry): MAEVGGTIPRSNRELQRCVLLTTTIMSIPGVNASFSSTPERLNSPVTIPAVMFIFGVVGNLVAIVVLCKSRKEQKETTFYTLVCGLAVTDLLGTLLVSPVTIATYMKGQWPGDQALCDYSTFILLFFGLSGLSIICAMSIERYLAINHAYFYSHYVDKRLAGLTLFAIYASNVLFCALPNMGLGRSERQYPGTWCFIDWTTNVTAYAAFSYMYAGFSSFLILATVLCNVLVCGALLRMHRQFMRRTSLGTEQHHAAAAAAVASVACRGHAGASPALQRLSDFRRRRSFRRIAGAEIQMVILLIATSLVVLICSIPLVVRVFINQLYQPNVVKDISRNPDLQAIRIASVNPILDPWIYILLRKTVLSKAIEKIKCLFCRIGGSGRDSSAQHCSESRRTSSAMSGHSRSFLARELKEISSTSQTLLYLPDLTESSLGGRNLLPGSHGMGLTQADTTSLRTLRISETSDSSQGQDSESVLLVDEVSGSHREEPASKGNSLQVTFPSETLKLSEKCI
SMILES,Ki [1] [nM],Ki (Prostacyclin receptor) [nM],EC50 [2] [nM],Ki [3] [nM],Ki [4] [nM],Ki [5] [nM],ED50 (Rattus norvegicus [6]) [mg/kg],Supression (Rattus norvegicus [7])
CCCCC[C@H](O)/C=C/[C@H]1[C@H](O)CC(=O)[C@@H]1CSCCCCC(=O)O,8.7,1400,1000,91,2,95,,
CCCCC[C@H](O)/C=C/[C@H]1[C@H](O)CC(=O)[C@@H]1CCSCCCC(=O)O,0.5,750,3.6,75,1.9,52,,
COCc1cccc(C[C@H](O)/C=C/[C@H]2[C@H](O)CC(=O)[C@@H]2CCSCCCC(=O)OC)c1 [RIVENPROST],,,,,,,> 300,significant
CCCCC[C@H](O)/C=C/[C@H]1[C@H](O)CC(=O)[C@@H]1CCCCSCC(=O)O,2.1,> 10000,46,49,1.2,200,,
CCCCC[C@H](O)/C=C/[C@H]1[C@H](O)CC(=O)[C@@H]1CCCSCCC(=O)O,11,920,1000,340,3.7,27,,
CCCCC[C@H](O)/C=C/[C@H]1[C@H](O)CC(=O)[C@@H]1CCCCCCC(=O)O [ALPROSTADIL],3.1,> 10000,3.6,22,,6,,

# Further lines, with some results ahead:
Ki [1] [nM],Ki (Prostacyclin receptor) [nM],EC50 [2] [nM],Ki [3] [nM],Ki [4] [nM],Ki [5] [nM],SMILES,ED50 (Rattus norvegicus [6]) [mg/kg],Supression (Rattus norvegicus [7])
4.9,> 10000,20,7400,,,Cc1cc(C[C@H](O)/C=C/[C@H]2[C@H](O)CC(=O)[C@@H]2CCSCCCC(=O)O)ccc1O,,
32,> 10000,270,3100,,,COCc1cccc(C[C@H](O)/C=C/[C@@H]2[C@@H](CCSCCCC(=O)O)[C@H](F)C[C@H]2O)c1,,
3.4,> 10000,14,58,94,1700,COCc1cccc(C[C@H](O)/C=C/[C@@H]2[C@@H](C/C=C/CCCC(=O)O)[C@H](F)C[C@H]2O)c1,,
0.5,> 10000,3.3,12,92,980,COCc1cccc(C[C@H](O)/C=C/[C@@H]2[C@@H](C/C=C/CCCC(=O)O)[C@H](Cl)C[C@H]2O)c1,,
0.7,> 10000,1.6,620,56,> 10000,COCc1cccc(C[C@H](O)/C=C/[C@H]2[C@H](O)CC(=O)[C@@H]2CCSCCCC(=O)O)c1,,
2.7,> 10000,160,370,740,5400,COCc1cccc(C[C@H](O)/C=C/[C@@H]2[C@@H](CCCCCCC(=O)O)[C@H](Cl)C[C@H]2O)c1,,
7.7,> 10000,44,290,2200,3100,Cc1cc(C[C@H](O)/C=C/[C@@H]2[C@@H](C/C=C/CCCC(=O)O)[C@H](Cl)C[C@H]2O)ccc1O,,
